Measurements reported in patent publication US6642386B2, “N-(4-carbamimidoyl-phenyl)-glycine derivatives” (Hoffmann-La Roche Inc., priority 2002, dated 2003).
Values after ≈ are worked out from the molar mass of the structure shown. Where two headings read alike, the source gives them in different places.

Assays:
[1] = Solubility (phosphate buffer); type: physicochemical
human plasma = assay: prothrombin time (PT) clotting test; type: biochemical; details: inhibitor concentration which brought about a doubling of the PT clotting time, Innovin (recombinant human tissue factor)
Experimental: The activity of the low molecular weight substances can, moreover, be characterized in the “prothrombi” time” (PT) clotting test. The substances are prepared as a 10 mM solution in DMSO or DMSO/0.1M HCl (DHCl) and thereafter made up to the desired dilution in the same solvent. Thereafter, 0.25 ml of human plasma (obtained from whole blood anticoagulated with 1/10 volume of 108 mM Na citrate) was placed in the instrument-specific sample container. In each case 5 μl of each dilution of the substance-dilution series was then mixed with the plasma provided. This plasma/inhibitor mixture was incubated at 37° C. for 2 minutes. Thereafter, there were pipetted to the semi-automatic device (ACL, Automated Coagulation Laboratory (Instrument Laboratory)) 50 μl of plasma/inhibitor mixture in the measurement container. The clotting reaction was initiated by the addition of 0.1 ml of Innovin® (recombinant human tissue factor combined with calcium buffer and synthetic phospholipids(Dade Behring®, Inc.). The time up to the fibrin cross-linking was determined photooptically from the ACL. The inhibitor concentration, which brought about a doubling of the PT clotting time, was determined by means of a graph.

Solubility (phosphate buffer, pH 6.5) ([1]; pH 6.5)	melting point	solubility ([1]; aqueous buffer, pH 5 (stated in the cell), read-out: Solubility (phosphate buffer, pH 5))	solubility ([1]; pH 6.5, aqueous buffer, read-out: Solubility (phosphate buffer, pH 6.5))	SMILES	concentration doubling PT clotting time (human plasma)
2.2 mg/ml				CCOc1cc(O[C@@H]2CCCN(C)C2)c(F)c([C@@H](Nc2ccc(C(=N)N)cc2)C(=O)O)c1 (racemic) [Example 2.3, (RS)- and (SR)-(4-carbamimidoyl-phenylamino)-[5-ethoxy-2-fluoro-3-[(RS)-1-methyl-piperidin-3-yloxy]-phenyl]-acetic acid]	2.1 µM
	232 °C			CCOc1cc(OCC2CCN(C)CC2)c(F)c(C(Nc2ccc(C(=N)N)cc2)C(=O)O)c1 (racemic) [Example 6.3, (RS)-(4-carbamimidoyl-phenylamino)-[5-ethoxy-2-fluoro-3-(1-methyl-piperidin-4-ylmethoxy)-phenyl]-acetic acid]	
		3300 µg/mL (≈ 7.42 mM)		CCOc1cc(OC2CCN(C)CC2)c(F)c(C(Nc2ccc(C(=N)N)cc2)C(=O)O)c1 (racemic) [Example 13.3, (RS)-(4-carbamimidoyl-phenylamino)-[5-ethoxy-2-fluoro-3-(1-methyl-piperidin-4-yloxy)-phenyl]-acetic acid]	3.6 µM
			5700 µg/mL (≈ 12.8 mM)	CCOc1cc(OC2CCN(C)CC2)c(F)c([C@@H](Nc2ccc(C(=N)N)cc2)C(=O)O)c1 [Example 13.8, (R)-(4-carbamimidoyl-phenylamino)-[5-ethoxy-2-fluoro-3-(1-methyl-piperidin-4-yloxy)-phenyl]-acetic acid]	1.6 µM
